# Positions of bridges follow the written chain, without caps; N, C: chain ends. Non-standard residues stand in square brackets, D forms with d. Residues, ends and D or L forms follow the SMILES beside them. Dap = NC[C@H](N)C(=O)O
# Target: T1, neurokinin A receptor (receptor NK-2) (Oryctolagus cuniculus, UniProt P79218)
# T1 construct: The said preparation consisted of isolated rabbit pulmonary artery; from tissue; host or cells: isolated rabbit pulmonary artery
# T1 sequence (P79218 1-384): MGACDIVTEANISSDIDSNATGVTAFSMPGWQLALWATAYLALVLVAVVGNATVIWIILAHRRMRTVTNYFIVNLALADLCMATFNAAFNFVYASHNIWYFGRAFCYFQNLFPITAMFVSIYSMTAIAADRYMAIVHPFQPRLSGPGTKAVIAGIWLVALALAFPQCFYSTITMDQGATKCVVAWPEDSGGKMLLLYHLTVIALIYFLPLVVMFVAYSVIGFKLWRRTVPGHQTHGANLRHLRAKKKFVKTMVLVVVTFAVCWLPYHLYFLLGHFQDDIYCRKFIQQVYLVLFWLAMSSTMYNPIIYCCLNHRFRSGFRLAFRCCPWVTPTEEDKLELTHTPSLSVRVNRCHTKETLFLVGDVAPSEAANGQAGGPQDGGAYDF
# Experiment: inhibition of NKA-induced contraction in isolated rabbit pulmonary artery
# Format: cell-based
# Conditions: compound, NKA 3 nM
# Method: The capacity of the products described in the present invention to interact with the neurokinin A receptor as agonists or antagonists was assessed using a preparation characterized by the fact that the biological response produced by tachykinins and correlated peptides was exclusively determined by the neurokinin A receptor (receptor NK-2). The said preparation consisted of isolated rabbit pulmonary artery affected by a dose-dependentcontraction brought about by tachykinins (Rovero et al., Neuropeptides, 13, 263-270, 1989). The determination of the peptide activity in the test preparation was based on the use of an NKA concentration (3 nM) causing a response equal to 45% of max. response. The peptides considered herein were added to the preparation in growing concentrations. Their activity was assessed as inhibition of response to NKA.
compound,measurement,value
CSCC[C@@H]1NC(=O)[C@H](CC(C)C)NC(=O)[C@@H]2CNC(=O)C[C@H](NC1=O)C(=O)N[C@@H](Cc1c[nH]c3ccccc13)C(=O)N[C@@H](Cc1ccccc1)C(=O)N2 [Compound 1] (cyclo(DWF[Dap]LM); lactam 1-4),inhibition of response to neurokinins A,100%
